Test results published in ChEMBL document CHEMBL2429820, “Synthesis and anticonvulsant activity evaluation of 7-alkoxy-2,4-dihydro-1H-benzo[b][1,2,4]triazolo[4,3-d][1,4]thiazin-1-ones in various murine experimental seizure models” (Med Chem Res, 2013).
Activity calls are given as the source filed them. The calls are words filed in the database; no cut-off is given here.

How the values were obtained:
Mus musculus [1] = assay: Anticonvulsant activity in KunMing mouse assessed as protection against maximal electroshock-induced seizure at 30 mg/kg, ip after 0.5 hrs; assay type: functional, organism-based; design: dose 30 mg/kg
Mus musculus [2] = assay: Anticonvulsant activity against bicuculline-induced seizure in KunMing mouse assessed as lethality at 30 mg/kg, ip administered 30 mins before bicuculline challenge measured after 30 mins; assay type: functional; details: route intraperitoneal
Mus musculus [3] = assay: Anticonvulsant activity against bicuculline-induced seizure in KunMing mouse assessed as tonic seizure level at 30 mg/kg, ip administered 30 mins before bicuculline challenge measured after 30 mins; assay type: functional; details: route intraperitoneal
Mus musculus [4] = assay: Anticonvulsant activity against bicuculline-induced seizure in KunMing mouse assessed as clonic seizure level at 30 mg/kg, ip administered 30 mins before bicuculline challenge measured after 30 mins; assay type: functional; details: route intraperitoneal
Mus musculus [5] = assay: Anticonvulsant activity against 3-mercaptopropionic acid-induced seizure in KunMing mouse assessed as lethality at 30 mg/kg, ip administered 30 mins before 3-mercaptopropionic acid challenge measured after 30 mins; assay type: functional; details: route intraperitoneal
Mus musculus [6] = assay: Anticonvulsant activity against 3-mercaptopropionic acid-induced seizure in KunMing mouse assessed as tonic seizure level at 30 mg/kg, ip administered 30 mins before 3-mercaptopropionic acid challenge measured after 30 mins; assay type: functional; details: route intraperitoneal
Mus musculus [7] = assay: Anticonvulsant activity against 3-mercaptopropionic acid-induced seizure in KunMing mouse assessed as clonic seizure level at 30 mg/kg, ip administered 30 mins before 3-mercaptopropionic acid challenge measured after 30 mins; assay type: functional; details: route intraperitoneal
Mus musculus [8] = assay: Anticonvulsant activity against pentylenetetrazole-induced seizure in KunMing mouse assessed as lethality at 30 mg/kg, ip administered 30 mins before pentylenetetrazole challenge measured after 30 mins; assay type: functional; details: route intraperitoneal
Mus musculus [9] = assay: Anticonvulsant activity against pentylenetetrazole-induced seizure in KunMing mouse assessed as tonic seizure level at 30 mg/kg, ip administered 30 mins before pentylenetetrazole challenge measured after 30 mins; assay type: functional; details: route intraperitoneal
Mus musculus [10] = assay: Anticonvulsant activity against pentylenetetrazole-induced seizure in KunMing mouse assessed as clonic seizure level at 30 mg/kg, ip administered 30 mins before pentylenetetrazole challenge measured after 30 mins; assay type: functional; details: route intraperitoneal
Mus musculus [11] = assay: Protective index, ratio of TD50 for ip dosed KunMing mouse to ED50 for ip dosed KunMing mouse; assay type: functional
[12] = Neurotoxicity in ip dosed KunMing mouse assessed as inability of animal to maintain equilibrium on rod for at least 1 min; assay type: toxicity, organism-based; details: in vivo
Mus musculus [13] = assay: Anticonvulsant activity in ip dosed KunMing mouse assessed as protection against maximal electroshock-induced seizure after 0.5 hrs; assay type: functional
Mus musculus [14] = assay: Anticonvulsant activity in KunMing mouse assessed as protection against maximal electroshock-induced seizure at 100 mg/kg, ip after 0.5 hrs; assay type: functional, organism-based; design: dose 100 mg/kg
Mus musculus [15] = assay: Anticonvulsant activity in KunMing mouse assessed as protection against maximal electroshock-induced seizure at 15 mg/kg, ip after 0.5 hrs; assay type: functional, organism-based; design: dose 15 mg/kg
Mus musculus [16] = assay: Anticonvulsant activity in KunMing mouse assessed as protection against maximal electroshock-induced seizure at 7.5 mg/kg, ip after 0.5 hrs; assay type: functional, organism-based; design: dose 7.5 mg/kg

| Structure (SMILES) | Activity (Mus musculus [1]) | PI (Mus musculus [11]) | TD50 at 1 min [12] [mg/kg] | ED50 (Mus musculus [13]) [mg/kg] | Activity (Mus musculus [14]) | further results |
| --- | --- | --- | --- | --- | --- | --- |
| O=c1[nH]nc2n1-c1ccc(OCc3cccc(C(F)(F)F)c3)cc1SC2 | inactive |  |  |  |  |  |
| O=c1[nH]nc2n1-c1ccc(OCc3ccc(F)cc3)cc1SC2 | Active | 15.4 | 141 | 9.2 | Active | Activity (Mus musculus [2]): 30%; Activity (Mus musculus [3]): 10%; Activity (Mus musculus [4]): 90%; Activity (Mus musculus [5]): 60%; Activity (Mus musculus [6]): 0%; Activity (Mus musculus [7]): 100%; Activity (Mus musculus [8]): 80%; Activity (Mus musculus [9]): 10%; Activity (Mus musculus [10]): 100% |
| O=c1[nH]nc2n1-c1ccc(OCc3ccccc3)cc1SC2 |  | 7.8 | 94.7 | 12.2 | Active |  |
| CCCOc1ccc2c(c1)SCc1n[nH]c(=O)n1-2 | Active | 7 | 84.9 | 12.2 | Active |  |
| CCCCCOc1ccc2c(c1)SCC(=O)N2 |  | 8.9 | 306 | 34.1 |  |  |
| O=c1[nH]nc2n1-c1ccc(OCc3ccc(Cl)cc3)cc1SC2 |  |  |  |  |  | Activity (Mus musculus [15]): inactive |
| O=c1[nH]nc2n1-c1ccc(OCc3c(Cl)cccc3Cl)cc1SC2 |  |  |  |  |  | Activity (Mus musculus [15]): inactive |
| O=c1[nH]nc2n1-c1ccc(OCc3ccccc3Cl)cc1SC2 |  |  |  |  | inactive |  |
| CCOc1ccc2c(c1)SCc1n[nH]c(=O)n1-2 | inactive |  |  |  | Active |  |
| CCCCCCCCOc1ccc2c(c1)SCc1n[nH]c(=O)n1-2 |  |  |  |  | inactive |  |
| CCCCCCOc1ccc2c(c1)CCC(=O)N2 |  | 2.4 |  | 24 |  |  |
| CCCCCCCCCCCCOc1ccc2c(c1)SCc1n[nH]c(=O)n1-2 |  |  |  |  | inactive |  |
| NC(=O)N1c2ccccc2C=Cc2ccccc21 [CARBAMAZEPINE] |  | 6.4 |  | 11.8 |  | Activity (Mus musculus [2]): 60%; Activity (Mus musculus [3]): 0%; Activity (Mus musculus [4]): 100%; Activity (Mus musculus [6]): 0%; Activity (Mus musculus [7]): 100%; Activity (Mus musculus [8]): 10%; Activity (Mus musculus [9]): 0%; Activity (Mus musculus [10]): 100% |
| O=c1[nH]nc2n1-c1ccc(OCc3cccc(F)c3)cc1SC2 |  |  |  |  | Active | Activity (Mus musculus [16]): inactive |
| O=c1[nH]nc2n1-c1ccc(OCc3ccccc3F)cc1SC2 |  |  |  |  | Active | Activity (Mus musculus [16]): inactive |
| CCCCOc1ccc2c(c1)SCc1n[nH]c(=O)n1-2 | Active | 14.9 | 118 | 7.9 | Active | Activity (Mus musculus [15]): Active |
| CCCCCCCCCCCCCCOc1ccc2c(c1)SCc1n[nH]c(=O)n1-2 |  |  |  |  | inactive |  |
| CCCCCCCOc1ccc2c(c1)SCc1n[nH]c(=O)n1-2 |  |  |  |  |  | Activity (Mus musculus [16]): inactive |
| O=c1[nH]nc2n1-c1ccc(OCc3cccc(Cl)c3)cc1SC2 |  |  |  |  | Active | Activity (Mus musculus [15]): inactive |
| CCCCCCOc1ccc2c(c1)SCc1n[nH]c(=O)n1-2 | Active | 11.3 | 89.6 | 7.9 | Active | Activity (Mus musculus [15]): Active |
| CCCCCOc1ccc2c(c1)SCc1n[nH]c(=O)n1-2 | Active | 11.5 | 81.8 | 7.1 | Active | Activity (Mus musculus [15]): Active |
| Cc1ccc(COc2ccc3c(c2)SCc2n[nH]c(=O)n2-3)cc1 | Active |  |  |  | Active | Activity (Mus musculus [16]): inactive |
| N#Cc1ccccc1COc1ccc2c(c1)SCc1n[nH]c(=O)n1-2 |  |  |  |  | inactive |  |
